Assay results published in US6511967B1, “Use of an internalizing transferrin receptor to image transgene expression” (The General Hospital Corporation, priority 1999, dated 2003).

Experiments:
Gli36#6 = assay: In vitro MR imaging of Gli36#6 cells infected with PETZ amplicon and incubated with Tf-MION (FIG. 10A); type: cell-based; conditions: 10 μg Tf-MION
Experimental: In this figure, concentration labels refer to the amount of iron molecules added to the sample. […] Following infection, the cells were allowed to recover and were washed, pelleted, and imaged at room temperature as follows: SE (Spin Echo): TR 3000 ms, multiecho with TE 25, 50, 75, 100ms. Slice thickness 1.9 mm, field of view 8 cm, matrix 256×256, 2 NEX, scan time 26:12 minutes.

ETR+ and ETR− tumors [1] = assay: Biodistribution of labeled reporter complex in excised ETR+ and ETR− tumors; type: in vivo, nude mice
Experimental: A similar 4-fold difference was also observed when In labeled Tf was injected into these animals. The same assay can be used to analyze the biodistribution of other new reporter complexes.
First, rat 9L gliosarcoma cells (Brain Tumor Research Center, San Francisco, Calif.) were grown in Dulbecco's modified Eagle's medium (DMEM, Cellgro, Mediatech, Washington, D.C.) containing 10% fetal bovine serum (FBS, Cellgro).
Then, ETR− and ETR+ tumors were grown in nude mice by injecting […] cells of either cell line into the left and right flanks of animals (n=12). Each animal was implanted with both tumors in each flank so that it could serve as its own control. Animals were used for histology, MR, and/or biodistribution studies 10 to 14 days after tumor inoculation. The growth characteristics of the tumors were similar and by day 12 all animals had developed tumors 200-400 mg in size.

ETR+ and ETR− tumors [2] = assay: In vivo MR imaging of mice with ETR+ and ETR− tumors after intravenous Tf-MION; set-up: species or system nude mice; conditions: then tumoral signal intensity returned to baseline
Experimental: MR imaging was performed in live animals using a 1.5 T superconducting magnet (Signa 5.0; GE Medical Systems, Milwaukee, Wis.) using a 5-inch surface coil. […] Slice thickness was 3 mm. The field of view (FOV) was 10 cm^2, using a 256×256 imaging matrix and 2-4 acquisition averages. Signal intensity (SI) measurements were obtained in regions of interest (ROI) from tumor and background. To display MION-Tf induced changes, R2 maps of tumors calculated from spin echo images were superimposed on anatomic maps (T1 weighted images). Semiquantitation was done by calibrating R2 maps to known concentrations of radiolabeled superparagmagnetic probes.

[3] = tested on: Gli36EGFR tumors infected with PETZ; assay: In vivo MR imaging of gene transfer in bilateral Gli36EGFR brain tumors (FIG. 9); set-up: species or system nude mice; conditions: 24 hours after tail-vein injection, 1 mg/kg; 3-D gradient echo
Text: In another example of imaging of in vivo gene transfer, Gli36EGFR cells were implanted into nude mice 8 days prior to imaging to generate bilateral frontal tumors. On day 6 after implantation, tumors on the right were infected with the HSV-based amplicon PETZ (FIG. 8), which drives expression of an altered form of the TfR. Forty-eight hours after virus administration animals were imaged without contrast agent (T1-weighted pre-contrast scan; FIG. 9A) and then injected with Tf-SPDP-CLIO.
All contrast agents were injected by tail-vein administration (1 mg/kg Tf-SPDP-CLIO). Scans: (9A) T1 SE 300/16, FOV 8 cm, 256×256, 1.9 thk/0.2 spc; (9B) T1 SE [Omniscan], and (9C) T2 3D GR 38/20/5°, FOV 10 cm, 256×256, 0.5 thk/0.0 spc. [Tf-SPDP-CLIO.

Gli36EGFR cells [4] = assay: In vitro MR imaging of Gli36EGFR cells infected with PETZ amplicon and labeled with Tf-SPDP-CLIO (FIG. 10B); type: cell-based; conditions: MOI 20 or 4; 2 hours at 37° C.; especially at MOI of 20
Experimental: In another similar experiment, in vitro MR imaging was used to analyze viral transfer of the transferrin receptor and labeling with Tf-SPDP-CLIO. Gli36EGFR cells were uninfected or infected with an HSV-based amplicon (PETZ) driving expression of an altered form of the transferrin receptor (Multiplicity of Infection (MOI) of 20 or 4). After 24 hours, the cells were incubated with the indicated concentrations of Tf-SPDP-CLIO for 2 hours at 37° C. Following incubation, cells were harvested, washed, and pelleted for imaging at room temperature. As a control for non-specific uptake of unconjugated CLIO, infected and uninfected cells were also incubated in a similar fashion with 50 μg of CLIO alone. Concentration numbers along the top of the figure refer to the amount of iron added to the sample in the form of Tf-SPDP-CLIO. The ratio of Tf conjugated to CLIO for Tf-SPDP-CLIO was 4:1. […] The MR imaging conditions were as follows: SE (Spin Echo); TR 3000 ms, multiecho with TE 25, 50, 75, 100 ms. Slice thickness 1.9 mm, field of view 8 cm, matrix 256×256, 2 NEX, scan time 26:12 minutes.

Gli36EGFR cells [5] = tested on: Gli36EGFR cells
Experimental: Gli36EGFR cells were plated at approximately 10% confluency. Cells were infected the next day (MOI=5) with either one of three amplicons: EZ-TFR (FIG. 12), which was a control having a transferrin receptor gene, but lacking a p450 gene; EZ-p450 (FIG. 11), which was a second control with a p450 gene but no transferrin receptor gene; or PETZ (FIG. 8), which includes both the p450 and transferrin receptor genes. Following a 24 hour incubation with the viral amplicons, cyclophosphamide (CPA) was added in varying concentrations as indicated in the graph of FIG. 13. CPA is a chemotherapeutic compound that is metabolized by the expression product of the p450 gene (cyp2B1 in the rat). Cleavage of CPA yields an active metabolite, which is toxic to the cancer cells. Cell number was measured 72 hours later using a Coulter Counter. The data are presented in the graph in FIG. 13 as a percentage of control, where control cells are virally infected cells in the absence of CPA.

9L3.9 cells = assay: In vitro MR imaging of 9L3.9 cell pellets incubated with reporter complexes (FIG. 7); type: cell-based, rat; conditions: spin echo MR imaging
Experimental: Concentration labels in FIG. 7 refer to the amount of iron (reporter complex) added to the sample.
Incubations of the reporter complexes with the cells were carried out at 37° C. The cells were washed and pelleted, and pellets were imaged in microfuge test tubes at room temperature as follows: SE (Spin Echo): TR 3000 ms, multi-echo with TE 25, 50, 75, 100 ms. Slice thickness was 1.9 mm, field of view 8 cm, matrix 256×256, 2 NEX, scan time 26:12 minutes. As shown at the top row in the figure, the Tf-SPDP-CLIO contrast agent provided a change in measured signal at far lower concentrations of the reporter complex.

Tf-MION: human holo-transferrin covalently conjugated to dextran coated monocrystalline iron oxide nanoparticles by the periodate method
change of MR signal of cell pellet due to TfR expression after PETZ infection (Gli36#6): dramatically altered the MR signal
mean accumulation in ETR+ tumors (ETR+ and ETR− tumors [1]; 24 hours after IV administration): 3.2 % ID/g
mean accumulation in ETR− tumors (ETR+ and ETR− tumors [1]; 24 hours after IV administration, same animal): 0.8 % ID/g
persistence of MR signal intensity differences of tumors (ETR+ and ETR− tumors [2]): approximately 7 days

Tf-SPDP-CLIO: holo-Tf conjugated to CLIO using the crosslinking agent N-succinimidyl 3-(2-pyridyldithio) propionate (SPDP)
appearance of PETZ-infected tumor in MR image [3]: dark mass
change in MRI following infection with amplicons expressing the altered transferrin receptor (Gli36EGFR cells [4]): dramatic change in MRI at lower concentrations of iron

O=P1(N(CCCl)CCCl)NCCCO1 (stereo not drawn) [CPA, cyclophosphamide]
cells alive, percent of control, no amplicon (Gli36EGFR cells [5]; 10^3 μM CPA, 72 hours): about 80%
cells alive, percent of control, EZ-TFR amplicon (Gli36EGFR cells [5]; 10^3 μM CPA, 72 hours, MOI=5): about 80%
cells alive, percent of control, PETZ amplicon (Gli36EGFR cells [5]; 10^3 μM CPA, 72 hours, MOI=5): less than 10%
CPA concentration from which cell killing is significantly increased (Gli36EGFR cells [5]; PETZ and EZ-p450 amplicons): 10^1 μM

In labeled Tf: transferrin labeled with In (radioisotope) [reference compound]
difference in tumor accumulation, ETR+ vs ETR− tumors (ETR+ and ETR− tumors [1]; ETR+ vs ETR− tumors): ~4 fold

Tf-CLIO: holo-Tf conjugated to cross-linked iron oxide nanoparticles (CLIO) using the periodate method
contrast compared with the other reporter complexes (9L3.9 cells): better than the Tf-MION, but not as good as the Tf-SPDP-CLIO
